Laboratory results taken from paper PMC6943612, “Investigation of Anti-Inflammatory Potential of N-Arylcinnamamide Derivatives” (Molecules, 2019).

System: THP1-Blue™ NF-κB cells
Test: Cell viability determination (WST-1), 24 h
Type: cell-based
Settings: WST-1, 24 h incubation, serum-free medium, three independent measurements; read-out: IC50 ± SEM, viability of THP1-Blue™ NF-κB cell line
Procedure: The cell viability was determined as was described previously. […] The final concentration of DMSO was 0.1% (v/v) in each well. Measurements were taken after 24 h incubation with the tested substances. Viability was measured by the Cell Proliferation Reagent kit WST-1 (Roche Diagnostics, Basel, Switzerland) according to the manufacturer’s manual. […] The IC50 values were calculated by four-parameter logistic (4PL) analysis from obtained viability curves.

Row | SMILES | IC50
1 | Cc1ccc(C)c(NC(=O)/C=C/c2ccccc2)c1 [Compound 7] | > 30 µM
2 | O=C(/C=C/c1ccccc1)Nc1c(Cl)cccc1Cl [Compound 9] | > 30 µM
3 | O=C(/C=C/c1ccccc1)Nc1cc(Br)ccc1F [Compound 14] | > 30 µM
4 | O=C(/C=C/c1ccccc1)Nc1cc(F)ccc1Br [Compound 15, (2E)-N-(2-bromo-5-fluorophenyl)-3-phenylprop-2-enamide] | > 30 µM
5 | O=C(/C=C/c1ccccc1)Nc1ccc(Br)cc1Cl [Compound 16, (2E)-N-(4-bromo-2-chlorophenyl)-3-phenylprop-2-enamide] | > 30 µM
6 | COc1ccc([N+](=O)[O-])cc1NC(=O)/C=C/c1ccccc1 [Compound 18, (2E)-N-(2-methoxy-5-nitrophenyl)-3-phenylprop-2-enamide] | > 30 µM

Compounds with a lower IC50, results first:

Row | IC50 | SMILES
7 | 6.28 ± 2.32 µM | O=C(/C=C/c1ccccc1)Nc1ccc(Cl)c(Cl)c1 [Compound 10]
8 | 2.43 ± 1.06 µM | O=C(/C=C/c1ccccc1)Nc1cc(Cl)cc(Cl)c1 [Compound 11]
9 | 2.17 ± 1.19 µM | O=C(/C=C/c1ccccc1)Nc1cc(C(F)(F)F)cc(C(F)(F)F)c1 [Compound 13]

System: not given
Test: not given
Set-up: method as in PMID 30087309
Settings: cited from earlier work

Row | SMILES | log k
10 | O=C(/C=C/c1ccccc1)Nc1ccc(Cl)c(Cl)c1 [Compound 10] | 0.6821
11 | O=C(/C=C/c1ccccc1)Nc1cc(Cl)cc(Cl)c1 [Compound 11] | 0.8155
12 | O=C(/C=C/c1ccccc1)Nc1cc(C(F)(F)F)cc(C(F)(F)F)c1 [Compound 13] | 0.9814

System: transcription factor NF-κB
Test: Determination of LPS-induced NF-κB activity (Quanti-Blue, SEAP reporter)
Type: cell-based
Settings: concentration of compounds 0.5 µM; LPS 1 µg/mL, 24 h
Procedure: The activity of NF-κB transcription factors was evaluated on THP1-Blue™ NF-κB cells as described previously. […] After 24 h of incubation, 20 µL of cultivation medium was mixed with 200 µL of Quanti-Blue™ medium (Invivogen) and incubated according to the manufacturer’s instructions at 37 °C for 30–40 min. The activity of NF-κB was determined as secretion of embryonic alkaline phosphatase spectrophotometrically in a Tecan Infinite M200 (Tecan, Männedorf Switzerland) at 650 nm and compared with an untreated control (100%).
Figure 3 Effect of the tested compounds on the activity of transcription factor NF-κB. THP1-Blue™ NF-κB cells were pretreated by compounds (2 µM; or 0.5 µM for 10, 11, and 13) or prednisone (PDS; 2 µM) dissolved in DMSO at indicated concentrations for 1 h. Then, lipopolysaccharide (LPS) 1 µg/mL was added to trigger the NF-κB activation. The activity of NF-κB was measured 24 h after LPS stimulation using QuantiBlue™ assay. Graph represents mean ± SEM. Red dotted line show value of DMSO-only treated group, azur dotted line CA treated group, and blue dotted line PDS treated group. ** indicates statistical significance (p < 0.01) to DMSO group; *** indicates statistical significance (p < 0.001) to DMSO group **** indicates statistical significance (p < 0.0001) to DMSO group.

Row | SMILES | inhibition at 0.5 µM
13 | O=C(/C=C/c1ccccc1)Nc1ccc(Cl)c(Cl)c1 [Compound 10] | 10.9%
14 | O=C(/C=C/c1ccccc1)Nc1cc(Cl)cc(Cl)c1 [Compound 11] | 16.2%
15 | O=C(/C=C/c1ccccc1)Nc1cc(C(F)(F)F)cc(C(F)(F)F)c1 [Compound 13] | 19.7%

Same assay, conditions: concentration of compounds 2 µM; LPS 1 µg/mL, 24 h

Row | SMILES | inhibition at 2 µM
16 | Cc1ccc(C)c(NC(=O)/C=C/c2ccccc2)c1 [Compound 7] | 14.8%
17 | O=C(/C=C/c1ccccc1)Nc1c(Cl)cccc1Cl [Compound 9] | 14.1%
18 | O=C(/C=C/c1ccccc1)Nc1cc(Br)ccc1F [Compound 14] | 19.7%
19 | O=C(/C=C/c1ccccc1)Nc1cc(F)ccc1Br [Compound 15, (2E)-N-(2-bromo-5-fluorophenyl)-3-phenylprop-2-enamide] | 17.8%
20 | O=C(/C=C/c1ccccc1)Nc1ccc(Br)cc1Cl [Compound 16, (2E)-N-(4-bromo-2-chlorophenyl)-3-phenylprop-2-enamide] | 13.7%
21 | COc1ccc([N+](=O)[O-])cc1NC(=O)/C=C/c1ccccc1 [Compound 18, (2E)-N-(2-methoxy-5-nitrophenyl)-3-phenylprop-2-enamide] | 17.6%
